Results: ChEMBL document CHEMBL3091359, “Potent oxazolidinone antibacterials with heteroaromatic C-ring substructure” (ACS Med Chem Lett, 2013)
pIC50: −log10 of the molar value. Values after ≈ are worked out from the molar mass of the structure shown.

Legend:
Enterococcus faecium = assay: Antibacterial activity against Enterococcus faecium SR7940 clinical isolate assessed as […] by CLSI broth microdilution method; format: functional
Cytochrome P450 3A4 = Cytochrome P450 3A4 (Homo sapiens, UniProt P08684); assay: Inhibition of human CYP3A4 assessed as terfenadine hydroxylation after 20 mins by LC-MS/MS analysis; format: ADME
Chain of Cytochrome P450 3A4 (P08684 whole entry): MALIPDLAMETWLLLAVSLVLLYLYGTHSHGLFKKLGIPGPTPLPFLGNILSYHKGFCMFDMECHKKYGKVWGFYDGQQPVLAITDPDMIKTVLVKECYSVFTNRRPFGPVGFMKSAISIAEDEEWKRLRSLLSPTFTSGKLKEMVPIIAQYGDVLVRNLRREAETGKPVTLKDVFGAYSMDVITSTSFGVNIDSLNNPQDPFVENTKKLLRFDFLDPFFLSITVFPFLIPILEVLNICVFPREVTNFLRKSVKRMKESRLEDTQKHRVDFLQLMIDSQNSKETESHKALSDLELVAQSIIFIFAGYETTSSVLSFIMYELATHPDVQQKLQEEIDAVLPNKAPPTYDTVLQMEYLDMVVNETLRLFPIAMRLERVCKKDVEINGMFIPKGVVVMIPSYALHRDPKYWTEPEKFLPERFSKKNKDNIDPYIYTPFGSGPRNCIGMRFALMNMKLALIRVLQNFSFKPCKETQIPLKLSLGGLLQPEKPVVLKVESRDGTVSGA

Staphylococcus aureus [1] = assay: Ratio of linezolid MIC to compound MIC for Staphylococcus aureus Smith clinical isolate; format: functional
Staphylococcus aureus [2] = assay: Antibacterial activity against methicillin-resistant Staphylococcus aureus SR3637 clinical isolate infected in iv dosed JCL/ICR systemic infection model assessed as mortality administered after 1 hr of infection measured for 7 days; format: functional
MAO-B = molecular target: T1, MAO-B (Rattus norvegicus, UniProt P19643); assay: Inhibition of rat forebrain MAO-B using [14C]PEA as substrate at 30 uM preincubated for 20 mins followed by substrate addition measured after 10 mins by liquid scintillation counting analysis; conditions: probe [14C]PEA
T1 sequence (P19643 whole entry): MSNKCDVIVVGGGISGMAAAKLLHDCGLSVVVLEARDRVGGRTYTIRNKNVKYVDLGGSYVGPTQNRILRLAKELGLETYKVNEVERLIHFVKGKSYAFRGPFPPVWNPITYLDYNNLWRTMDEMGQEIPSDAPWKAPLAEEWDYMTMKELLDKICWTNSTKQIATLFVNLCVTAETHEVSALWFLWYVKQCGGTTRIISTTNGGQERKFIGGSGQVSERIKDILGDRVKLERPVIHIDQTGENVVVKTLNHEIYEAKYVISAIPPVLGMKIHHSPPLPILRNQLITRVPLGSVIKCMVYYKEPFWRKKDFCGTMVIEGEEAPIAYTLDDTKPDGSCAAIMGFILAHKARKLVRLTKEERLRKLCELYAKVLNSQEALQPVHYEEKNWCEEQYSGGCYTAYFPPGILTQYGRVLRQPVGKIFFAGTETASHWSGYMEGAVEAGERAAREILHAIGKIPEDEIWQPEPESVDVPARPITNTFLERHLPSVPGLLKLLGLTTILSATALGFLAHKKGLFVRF

Streptococcus pneumoniae [3] = assay: Antibacterial activity against penicillin-resistant Streptococcus pneumoniae SR11031 clinical isolate assessed as […] by CLSI broth microdilution method; format: functional
Moraxella catarrhalis = assay: Antibacterial activity against Moraxella catarrhalis SR26840 clinical isolate assessed as […] by CLSI broth microdilution method; format: functional
Cytochrome P450 1A2 = molecular target: T2, Cytochrome P450 1A2 (Homo sapiens, UniProt P05177); assay: Inhibition of human CYP1A2 assessed as ethoxyresorufin O-deethylation after 20 mins by fluorescence plate reader; format: ADME
T2 sequence (P05177 whole entry): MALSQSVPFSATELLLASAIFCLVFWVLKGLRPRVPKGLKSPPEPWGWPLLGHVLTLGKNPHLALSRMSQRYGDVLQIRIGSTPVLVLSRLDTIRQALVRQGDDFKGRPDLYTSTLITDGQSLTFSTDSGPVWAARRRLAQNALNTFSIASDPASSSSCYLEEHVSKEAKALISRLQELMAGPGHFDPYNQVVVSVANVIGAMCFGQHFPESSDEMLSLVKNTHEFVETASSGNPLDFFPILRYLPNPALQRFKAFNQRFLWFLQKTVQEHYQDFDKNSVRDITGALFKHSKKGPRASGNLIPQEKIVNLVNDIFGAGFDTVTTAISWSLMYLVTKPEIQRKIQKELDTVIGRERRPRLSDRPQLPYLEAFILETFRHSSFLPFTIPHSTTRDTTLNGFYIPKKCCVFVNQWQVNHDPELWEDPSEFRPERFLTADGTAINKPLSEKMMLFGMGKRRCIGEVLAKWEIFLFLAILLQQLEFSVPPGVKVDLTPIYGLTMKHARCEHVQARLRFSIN

Staphylococcus aureus [4] = assay: Antibacterial activity against methicillin-resistant Staphylococcus aureus SR3637 clinical isolate assessed as […] by CLSI broth microdilution method; format: functional
Cytochrome P450 2C9 = Cytochrome P450 2C9 (Homo sapiens, UniProt P11712); assay: Inhibition of human CYP2C9 assessed as tolbutamide hydroxylation after 20 mins by LC-MS/MS analysis; format: ADME
Chain of Cytochrome P450 2C9 (P11712 whole entry): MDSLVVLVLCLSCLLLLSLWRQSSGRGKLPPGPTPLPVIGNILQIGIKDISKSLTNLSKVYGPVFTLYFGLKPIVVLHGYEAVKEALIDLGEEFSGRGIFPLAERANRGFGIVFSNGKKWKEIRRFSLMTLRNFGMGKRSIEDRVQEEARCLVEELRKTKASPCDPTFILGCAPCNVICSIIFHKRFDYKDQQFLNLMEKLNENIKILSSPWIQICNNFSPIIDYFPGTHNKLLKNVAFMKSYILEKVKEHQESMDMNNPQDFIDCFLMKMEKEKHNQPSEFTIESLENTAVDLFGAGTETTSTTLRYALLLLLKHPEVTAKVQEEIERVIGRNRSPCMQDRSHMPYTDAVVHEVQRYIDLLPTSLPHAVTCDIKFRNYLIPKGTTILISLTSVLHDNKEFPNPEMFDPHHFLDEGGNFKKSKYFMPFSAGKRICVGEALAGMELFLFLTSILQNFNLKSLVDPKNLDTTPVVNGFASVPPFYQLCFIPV

Enterococcus faecalis = assay: Antibacterial activity against Enterococcus faecalis SR1004 clinical isolate assessed as […] by CLSI broth microdilution method; format: functional
Staphylococcus aureus [5] = assay: Antibacterial activity against Staphylococcus aureus Smith clinical isolate assessed as […] by CLSI broth microdilution method; format: functional
Staphylococcus aureus [6] = assay: Antibacterial activity against linezolid-resistant Staphylococcus aureus NRS271 clinical isolate harboring G2576T mutation in peptidyl transferase center domain V of 23S rRNA gene assessed as […] by CLSI broth microdilution method; format: functional
Staphylococcus aureus [7] = assay: Antibacterial activity against methicillin-resistant Staphylococcus aureus SR3637 clinical isolate infected in po dosed JCL/ICR systemic infection model assessed as mortality administered after 1 hr of infection measured for 7 days; format: functional
Haemophilus influenzae = assay: Antibacterial activity against Haemophilus influenzae SR27914 clinical isolate assessed as […] by CLSI broth microdilution method; format: functional
Cytochrome P450 2D6 = Cytochrome P450 2D6 (Homo sapiens, UniProt P10635); assay: Inhibition of human CYP2D6 assessed as dextromethorphan O-demethylation after 20 mins by LC-MS/MS analysis; format: ADME
Chain of Cytochrome P450 2D6 (P10635 whole entry): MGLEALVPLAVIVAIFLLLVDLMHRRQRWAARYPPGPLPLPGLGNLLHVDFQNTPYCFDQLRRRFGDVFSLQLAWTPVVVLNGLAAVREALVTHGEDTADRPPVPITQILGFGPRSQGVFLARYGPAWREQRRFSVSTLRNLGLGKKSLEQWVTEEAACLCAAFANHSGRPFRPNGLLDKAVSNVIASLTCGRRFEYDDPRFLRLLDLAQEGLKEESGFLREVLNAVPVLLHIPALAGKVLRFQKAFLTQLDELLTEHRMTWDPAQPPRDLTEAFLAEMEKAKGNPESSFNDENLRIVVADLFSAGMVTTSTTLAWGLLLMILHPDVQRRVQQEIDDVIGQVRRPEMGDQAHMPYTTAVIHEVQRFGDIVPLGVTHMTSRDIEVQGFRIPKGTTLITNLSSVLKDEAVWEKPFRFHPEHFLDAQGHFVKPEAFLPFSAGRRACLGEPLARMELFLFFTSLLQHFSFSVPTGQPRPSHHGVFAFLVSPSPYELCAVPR

MAO-A = molecular target: T3, MAO-A (Rattus norvegicus, UniProt P21396); assay: Inhibition of rat forebrain MAO-A using [14C]5-HT as substrate at 30 uM preincubated for 20 mins followed by substrate addition measured after 5 mins by liquid scintillation counting analysis; conditions: probe [14C]5-HT
T3 sequence (P21396 whole entry): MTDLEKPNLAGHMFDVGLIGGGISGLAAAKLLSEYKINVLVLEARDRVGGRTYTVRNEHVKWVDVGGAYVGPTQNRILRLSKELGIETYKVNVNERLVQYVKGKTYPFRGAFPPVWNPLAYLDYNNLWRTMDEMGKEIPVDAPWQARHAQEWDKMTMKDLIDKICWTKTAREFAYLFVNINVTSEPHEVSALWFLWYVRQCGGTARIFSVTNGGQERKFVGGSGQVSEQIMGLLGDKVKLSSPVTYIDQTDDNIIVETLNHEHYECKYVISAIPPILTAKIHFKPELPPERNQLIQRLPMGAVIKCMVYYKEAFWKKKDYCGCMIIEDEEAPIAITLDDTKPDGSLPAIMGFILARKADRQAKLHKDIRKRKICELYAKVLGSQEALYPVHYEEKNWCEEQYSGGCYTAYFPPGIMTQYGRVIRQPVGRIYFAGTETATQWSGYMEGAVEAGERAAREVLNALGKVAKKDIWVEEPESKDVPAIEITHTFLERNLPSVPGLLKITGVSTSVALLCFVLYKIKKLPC

Staphylococcus aureus [8] = assay: Ratio of linezolid MIC to compound MIC for Staphylococcus aureus SR20549 clinical isolate; format: functional
Staphylococcus aureus [9] = assay: Antibacterial activity against Staphylococcus aureus SR20549 clinical isolate assessed as […] by CLSI broth microdilution method; format: functional
Streptococcus pneumoniae [10] = assay: Antibacterial activity against Streptococcus pneumoniae SR26207 clinical isolate assessed as […] by CLSI broth microdilution method; format: functional

Row | Structure (SMILES) | MIC (Enterococcus faecium) [µg/mL] | pIC50 (Cytochrome P450 3A4) | Ratio (Staphylococcus aureus [1]) | ED50 (Staphylococcus aureus [2]) [mg/kg] | inhibition at 10 min, 30 µM (MAO-B) [%] | MIC (Streptococcus pneumoniae [3]) [µg/mL] | MIC (Moraxella catarrhalis) [µg/mL] | pIC50 (Cytochrome P450 1A2) | MIC (Staphylococcus aureus [4]) [µg/mL] | pIC50 (Cytochrome P450 2C9) | MIC (Enterococcus faecalis) [µg/mL] | MIC (Staphylococcus aureus [5]) [µg/mL] | MIC (Staphylococcus aureus [6]) [µg/mL] | ED50 (Staphylococcus aureus [7]) [mg/kg] | MIC (Haemophilus influenzae) [µg/mL] | pIC50 (Cytochrome P450 2D6) | inhibition at 5 min, 30 µM (MAO-A) [%] | Ratio (Staphylococcus aureus [8]) | MIC (Staphylococcus aureus [9]) [µg/mL] | MIC (Streptococcus pneumoniae [10]) [µg/mL]
1 | CC(=O)NC[C@H]1CN(c2ccc(-c3ccn4ccnc4c3)c(F)c2)C(=O)O1 | 0.5 (≈ 1.36 µM) | < 4.70 | 8 | 1.09 | 52.8 | ≤ 0.063 | 2 (≈ 5.43 µM) | < 4.70 | 0.25 (≈ 0.679 µM) | < 4.70 | 0.25 (≈ 0.679 µM) | 0.25 (≈ 0.679 µM) | 2 (≈ 5.43 µM) | 1.05 | 2 (≈ 5.43 µM) | < 4.70 | 54.8 | 8 | 0.25 (≈ 0.679 µM) | ≤ 0.063
2 | CC(=O)NC[C@H]1CN(c2ccc(-c3ccc4ccnn4c3)c(F)c2)C(=O)O1 | 0.25 (≈ 0.679 µM) |  | 4 | > 10 |  | ≤ 0.063 | 2 (≈ 5.43 µM) |  | 0.25 (≈ 0.679 µM) |  | 0.5 (≈ 1.36 µM) | 0.5 (≈ 1.36 µM) | 2 (≈ 5.43 µM) |  | 8 (≈ 21.7 µM) |  |  | 8 | 0.25 (≈ 0.679 µM) | ≤ 0.063
3 | O=C1O[C@@H](Cn2ccnn2)CN1c1ccc(-c2ccc3nccn3c2)c(F)c1 | 0.5 (≈ 1.32 µM) |  |  |  |  | ≤ 0.063 | 4 (≈ 10.6 µM) |  | 0.25 (≈ 0.661 µM) |  | 0.5 (≈ 1.32 µM) | 0.5 (≈ 1.32 µM) | 4 (≈ 10.6 µM) |  | 4 (≈ 10.6 µM) |  |  |  | 0.25 (≈ 0.661 µM) | ≤ 0.063
4 | CC(=O)NC[C@H]1CN(c2ccc(-c3ccc4cncn4c3)c(F)c2)C(=O)O1 | 0.5 (≈ 1.36 µM) |  | 2 | 3.05 |  | ≤ 0.063 | 4 (≈ 10.9 µM) |  | 0.5 (≈ 1.36 µM) |  | 0.5 (≈ 1.36 µM) | 1 (≈ 2.71 µM) | 4 (≈ 10.9 µM) |  | 8 (≈ 21.7 µM) |  |  | 2 | 0.25 (≈ 0.679 µM) | ≤ 0.063
5 | O=C1O[C@@H](Cn2ccnn2)CN1c1ccc(-c2ccc3ncnn3c2)c(F)c1 | 0.25 (≈ 0.659 µM) |  |  |  |  | ≤ 0.063 | 8 (≈ 21.1 µM) |  | 0.25 (≈ 0.659 µM) |  | 0.5 (≈ 1.32 µM) | 0.5 (≈ 1.32 µM) | 8 (≈ 21.1 µM) |  | 4 (≈ 10.5 µM) |  |  |  | 0.25 (≈ 0.659 µM) | ≤ 0.063
6 | O=C1O[C@@H](Cn2ccnn2)CN1c1ccc(-c2ccn3ncnc3c2)c(F)c1 | 0.25 (≈ 0.659 µM) | < 4.70 |  |  | 27.9 | ≤ 0.063 | 4 (≈ 10.5 µM) | < 4.70 | 0.25 (≈ 0.659 µM) | < 4.70 | 0.25 (≈ 0.659 µM) | 0.25 (≈ 0.659 µM) | 2 (≈ 5.27 µM) | 0.95 | 2 (≈ 5.27 µM) | < 4.70 | 33.2 |  | 0.125 (≈ 0.33 µM) | ≤ 0.063
7 | O=C1O[C@@H](Cn2ccnn2)CN1c1ccc(-c2ccn3ccnc3c2)c(F)c1 | 0.25 (≈ 0.661 µM) | 4.82 |  | 0.95 | 26.7 | ≤ 0.063 | 2 (≈ 5.29 µM) | < 4.70 | 0.125 (≈ 0.33 µM) | < 4.70 | 0.25 (≈ 0.661 µM) | 0.25 (≈ 0.661 µM) | 2 (≈ 5.29 µM) | 1.02 | 2 (≈ 5.29 µM) | < 4.70 | 41.2 |  | 0.125 (≈ 0.33 µM) | ≤ 0.063
8 | CC(=O)NC[C@H]1CN(c2ccc(-c3ccc4nccn4c3)c(F)c2)C(=O)O1 | 0.25 (≈ 0.679 µM) |  | 2 | 3.17 |  | ≤ 0.063 | 8 (≈ 21.7 µM) |  | 0.5 (≈ 1.36 µM) |  | 0.5 (≈ 1.36 µM) | 1 (≈ 2.71 µM) | 8 (≈ 21.7 µM) | 3.05 | 4 (≈ 10.9 µM) |  |  | 4 | 0.5 (≈ 1.36 µM) | ≤ 0.063
9 | CC(=O)NC[C@H]1CN(c2ccc(-c3ccc4ncnn4c3)c(F)c2)C(=O)O1 | 0.5 (≈ 1.35 µM) |  | 4 |  |  | ≤ 0.063 | 8 (≈ 21.7 µM) |  | 0.5 (≈ 1.35 µM) |  | 0.5 (≈ 1.35 µM) | 0.5 (≈ 1.35 µM) | 8 (≈ 21.7 µM) |  | 4 (≈ 10.8 µM) |  |  | 2 | 0.5 (≈ 1.35 µM) | ≤ 0.063
